Test results from PMC10023787, “Trio-pharmacophore DNA-encoded chemical library for simultaneous selection of fragments and linkers” (Nature Communications, 2023).

How the values were obtained:
MMP-2 = molecular target: T1, MMP-2 (Homo sapiens, UniProt P08253); test: MMP-2 inhibition assay (fluorogenic peptide substrate); format: biochemical; conditions: for remaining activity (%): MMP-2; for IC50: mean ± SE, n.d: not detected, Fig. 5d unit inferred, µM, read-out: IC50
T1 construct: purchased Sino Biological 10082-HNAH
T1 sequence (P08253 110-660): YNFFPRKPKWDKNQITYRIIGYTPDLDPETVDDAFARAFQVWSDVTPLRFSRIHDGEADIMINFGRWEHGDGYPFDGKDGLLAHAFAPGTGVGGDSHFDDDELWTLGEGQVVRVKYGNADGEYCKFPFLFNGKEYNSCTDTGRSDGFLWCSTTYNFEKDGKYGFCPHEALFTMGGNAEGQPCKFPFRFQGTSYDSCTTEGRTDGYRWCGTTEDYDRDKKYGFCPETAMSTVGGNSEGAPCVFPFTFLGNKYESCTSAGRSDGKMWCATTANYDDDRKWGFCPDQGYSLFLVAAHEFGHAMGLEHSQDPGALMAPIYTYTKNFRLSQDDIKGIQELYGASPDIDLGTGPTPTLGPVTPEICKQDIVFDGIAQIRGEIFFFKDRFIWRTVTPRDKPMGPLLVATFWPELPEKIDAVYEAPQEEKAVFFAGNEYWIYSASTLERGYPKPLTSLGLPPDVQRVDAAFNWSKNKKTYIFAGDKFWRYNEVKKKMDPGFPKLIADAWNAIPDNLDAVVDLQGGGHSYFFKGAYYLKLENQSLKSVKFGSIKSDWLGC
Method: (§1) The inhibition by the small molecule compounds against MMP-2/MMP-9 was measured using an assay probing the enzyme proteolytic activity on the substrate DNP-Pro-Leu-Gly-Met-Trp-Ser-Arg (Enzo Life Sciences, USA). All assays were performed in the assay buffer containing 50 mM Tris, 100 mM NaCl. 5 mM CaCl2, and 0.1% Brij 35, pH 7.5. Human proMMP-2 and proMMP-9 were purchased from Sino biological (Germany). The proMMPs were activated by 1 mM APMA in the assay buffer at 37 °C for 2 h. After activation, MMP-2 was diluted to 6.5 nM of final assay concentration, and MMP-9 was diluted by the buffer to reach 10 nM of final assay concentration. In each well, 49 μl of enzyme solution was incubated with 1 μl of compounds of series of concentration (nM-mM in DMSO) at RT for 30 min. 2 μl of the FRET substrate was added right before the measurement at a final concentration of 25 μM. The rate of hydrolysis was monitored by quantifying the emission at 360 nm (ex: 280 nm). The emission was measured with intervals of the 30 s for 30 min with Synergy H1 Plate Reader (Agilent, USA). The measurements were done in triplicate. […] Then, curves were plotted as a function of the concentration of the inhibitor against the relative enzyme activity. Vmax was derived from the detected […] signal for each concentration and logistic fitting was performed to obtain IC50 values using Origin 2019b (OriginLab).

MMP-9 = molecular target: T2, MMP-9 (Homo sapiens, UniProt P14780); test: MMP-9 inhibition assay (fluorogenic peptide substrate); format: biochemical; parameters: remaining enzyme activity (% of control): scale not given here; conditions: for remaining enzyme activity (% of control): MMP-9
T2 construct: purchased Sino Biological 10327-HNAH
T2 sequence (P14780 107-707 limits assumed): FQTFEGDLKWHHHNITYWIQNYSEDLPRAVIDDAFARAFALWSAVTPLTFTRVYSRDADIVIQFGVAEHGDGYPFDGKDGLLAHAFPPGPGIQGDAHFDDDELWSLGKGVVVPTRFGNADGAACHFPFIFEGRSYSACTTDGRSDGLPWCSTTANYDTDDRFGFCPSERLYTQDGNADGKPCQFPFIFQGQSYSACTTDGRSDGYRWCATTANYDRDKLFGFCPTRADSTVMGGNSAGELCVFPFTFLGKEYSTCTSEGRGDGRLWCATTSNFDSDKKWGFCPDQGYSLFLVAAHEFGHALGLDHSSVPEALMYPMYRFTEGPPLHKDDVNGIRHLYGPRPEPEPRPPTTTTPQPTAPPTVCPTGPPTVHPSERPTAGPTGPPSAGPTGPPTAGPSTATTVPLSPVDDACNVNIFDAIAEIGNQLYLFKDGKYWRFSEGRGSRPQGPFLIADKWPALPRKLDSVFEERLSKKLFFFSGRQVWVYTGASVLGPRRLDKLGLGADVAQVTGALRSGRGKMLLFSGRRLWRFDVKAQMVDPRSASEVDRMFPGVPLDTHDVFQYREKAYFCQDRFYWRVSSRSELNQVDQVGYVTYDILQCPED
Method: as §1

## O=C(CNC(=O)NC12CC3CC(CC(C3)C1)C2)NCc1c[nH]nn1 [66+787 Linker 1]
MMP-2; concentration 0.0156 µM
  remaining activity (%): 93.33
MMP-2; concentration 0.08 µM
  remaining activity (%): 91.88
MMP-2; concentration 0.39 µM
  remaining activity (%): 89.28
MMP-2; concentration 1.95 µM
  remaining activity (%): 98.93
MMP-2; concentration 9.75 µM
  remaining activity (%): 95.17
MMP-2; concentration 48.76 µM
  remaining activity (%): 89.24
MMP-2; concentration 243.80 µM
  remaining activity (%): 91.48
MMP-2; concentration 1219.00 µM
  remaining activity (%): 64.77
MMP-9; concentration 0.08 µM
  remaining enzyme activity (% of control): 90.03
MMP-9; concentration 0.39 µM
  remaining enzyme activity (% of control): 107.83
MMP-9; concentration 1.95 µM
  remaining enzyme activity (% of control): 106.33
MMP-9; concentration 9.75 µM
  remaining enzyme activity (% of control): 95.98
MMP-9; concentration 48.76 µM
  remaining enzyme activity (% of control): 92.70
MMP-9; concentration 243.80 µM
  remaining enzyme activity (% of control): 85.14
MMP-9; concentration 1219.00 µM
  remaining enzyme activity (% of control): 78.29

## O=C(CCCCCCC(=O)NCC12CC3CC(CC(C3)C1)C2)NCc1c[nH]nn1 [66+787 Linker 4]
MMP-2; concentration 0.0156 µM
  remaining activity (%): 93.57
MMP-2; concentration 0.08 µM
  remaining activity (%): 87.26
MMP-2; concentration 0.39 µM
  remaining activity (%): 84.29
MMP-2; concentration 1.95 µM
  remaining activity (%): 79.19
MMP-2; concentration 9.75 µM
  remaining activity (%): 76.03
MMP-2; concentration 48.76 µM
  remaining activity (%): 60.10
MMP-2; concentration 243.80 µM
  remaining activity (%): 68.09
MMP-2; concentration 1219.00 µM
  remaining activity (%): 72.50
MMP-9; concentration 0.08 µM
  remaining enzyme activity (% of control): 101.70
MMP-9; concentration 0.39 µM
  remaining enzyme activity (% of control): 95.25
MMP-9; concentration 1.95 µM
  remaining enzyme activity (% of control): 95.00
MMP-9; concentration 9.75 µM
  remaining enzyme activity (% of control): 100.64
MMP-9; concentration 48.76 µM
  remaining enzyme activity (% of control): 91.07
MMP-9; concentration 243.80 µM
  remaining enzyme activity (% of control): 93.01
MMP-9; concentration 1219.00 µM
  remaining enzyme activity (% of control): 79.78

## O=C(CCC(=O)NCc1c[nH]nn1)NCCOCCOCCNC(=O)CNC(=O)NC12CC3CC(CC(C3)C1)C2 [66+787 Linker 10]
MMP-2; concentration 0.07 µM
  remaining activity (%): 89.74
MMP-2; concentration 0.33 µM
  remaining activity (%): 85.09
MMP-2; concentration 1.67 µM
  remaining activity (%): 89.74
MMP-2; concentration 8.34 µM
  remaining activity (%): 82.52
MMP-2; concentration 41.72 µM
  remaining activity (%): 81.27
MMP-2; concentration 208.60 µM
  remaining activity (%): 74.95
MMP-2; concentration 1043.00 µM
  remaining activity (%): 25.65
MMP-2; concentration […]
  remaining activity (%): 97.97
MMP-2
  IC50: 578 ± 96 µM
MMP-9; concentration 0.07 µM
  remaining enzyme activity (% of control): 99.26
MMP-9; concentration 0.33 µM
  remaining enzyme activity (% of control): 98.95
MMP-9; concentration 1.67 µM
  remaining enzyme activity (% of control): 95.42
MMP-9; concentration 8.34 µM
  remaining enzyme activity (% of control): 94.84
MMP-9; concentration 41.72 µM
  remaining enzyme activity (% of control): 86.90
MMP-9; concentration 208.60 µM
  remaining enzyme activity (% of control): 67.40
MMP-9; concentration 1043.00 µM
  remaining enzyme activity (% of control): 51.64

## O=C(/C=C/CCCCC(=O)NCc1c[nH]nn1)CC(=O)NCC12CC3CC(CC(C3)C1)C2 [66+787 Linker 12]
MMP-2; concentration 0.0111 µM
  remaining activity (%): 95.55
MMP-2; concentration 0.0553 µM
  remaining activity (%): 86.42
MMP-2; concentration 0.28 µM
  remaining activity (%): 84.28
MMP-2; concentration 1.38 µM
  remaining activity (%): 96.70
MMP-2; concentration 6.91 µM
  remaining activity (%): 90.43
MMP-2; concentration 34.57 µM
  remaining activity (%): 98.71
MMP-2; concentration 172.86 µM
  remaining activity (%): 67.90
MMP-2; concentration 864.30 µM
  remaining activity (%): 16.96
MMP-2
  IC50: 339 ± 63.3 µM
MMP-9; concentration 0.0553 µM
  remaining enzyme activity (% of control): 94.85
MMP-9; concentration 0.28 µM
  remaining enzyme activity (% of control): 91.07
MMP-9; concentration 1.38 µM
  remaining enzyme activity (% of control): 90.00
MMP-9; concentration 6.91 µM
  remaining enzyme activity (% of control): 80.21
MMP-9; concentration 34.57 µM
  remaining enzyme activity (% of control): 81.44
MMP-9; concentration 172.86 µM
  remaining enzyme activity (% of control): 37.12
MMP-9; concentration 864.30 µM
  remaining enzyme activity (% of control): 14.22
MMP-9; mean ± SE, n.d: not detected, Fig. 5e prints no unit, µM, read-out: IC50
  IC50: 115 ± 78.3 µM

## O=C(CNC(=O)NC12CC3CC(CC(C3)C1)C2)NCCSCC(=O)NCc1c[nH]nn1 [66+787 Linker 24]
MMP-2; concentration 0.0156 µM
  remaining activity (%): 107.17
MMP-2; concentration 0.08 µM
  remaining activity (%): 100.74
MMP-2; concentration 0.39 µM
  remaining activity (%): 89.54
MMP-2; concentration 1.95 µM
  remaining activity (%): 101.35
MMP-2; concentration 9.75 µM
  remaining activity (%): 92.40
MMP-2; concentration 48.76 µM
  remaining activity (%): 87.86
MMP-2; concentration 243.80 µM
  remaining activity (%): 72.74
MMP-2; concentration 1219.00 µM
  remaining activity (%): 41.09
MMP-2
  IC50: 861 ± 97.2 µM
MMP-9; concentration 0.08 µM
  remaining enzyme activity (% of control): 99.22
MMP-9; concentration 0.39 µM
  remaining enzyme activity (% of control): 101.28
MMP-9; concentration 1.95 µM
  remaining enzyme activity (% of control): 105.60
MMP-9; concentration 9.75 µM
  remaining enzyme activity (% of control): 109.06
MMP-9; concentration 48.76 µM
  remaining enzyme activity (% of control): 90.00
MMP-9; concentration 243.80 µM
  remaining enzyme activity (% of control): 81.70
MMP-9; concentration 1219.00 µM
  remaining enzyme activity (% of control): 47.95

## Cn1c(O)nc2cc(C(=O)NCC34CC5CC(CC(C5)C3)C4)cnc21 [66+826 Linker 1]
MMP-2; concentration 0.12 µM
  remaining activity (%): 104.18
MMP-2; concentration 0.49 µM
  remaining activity (%): 97.92
MMP-2; concentration 1.95 µM
  remaining activity (%): 99.61
MMP-2; concentration 7.81 µM
  remaining activity (%): 91.81
MMP-2; concentration 31.25 µM
  remaining activity (%): 84.92
MMP-2; concentration 125.00 µM
  remaining activity (%): 90.24
MMP-2; concentration 500.00 µM
  remaining activity (%): 77.04
MMP-9; concentration 0.12 µM
  remaining enzyme activity (% of control): 90.98
MMP-9; concentration 0.49 µM
  remaining enzyme activity (% of control): 79.87
MMP-9; concentration 1.95 µM
  remaining enzyme activity (% of control): 80.91
MMP-9; concentration 7.81 µM
  remaining enzyme activity (% of control): 80.18
MMP-9; concentration 31.25 µM
  remaining enzyme activity (% of control): 77.01
MMP-9; concentration 125.00 µM
  remaining enzyme activity (% of control): 59.34
MMP-9; concentration 500.00 µM
  remaining enzyme activity (% of control): 44.40

## Cn1c(O)nc2cc(C(=O)NCCCCCCCCNC(=O)CNC(=O)NC34CC5CC(CC(C5)C3)C4)cnc21 [66+826 Linker 4]
MMP-2; concentration 0.12 µM
  remaining activity (%): 90.87
MMP-2; concentration 0.49 µM
  remaining activity (%): 97.75
MMP-2; concentration 1.95 µM
  remaining activity (%): 98.21
MMP-2; concentration 7.81 µM
  remaining activity (%): 97.67
MMP-2; concentration 31.25 µM
  remaining activity (%): 98.57
MMP-2; concentration 125.00 µM
  remaining activity (%): 99.42
MMP-2; concentration 500.00 µM
  remaining activity (%): 77.03
MMP-9; concentration 0.12 µM
  remaining enzyme activity (% of control): 93.59
MMP-9; concentration 0.49 µM
  remaining enzyme activity (% of control): 93.14
MMP-9; concentration 1.95 µM
  remaining enzyme activity (% of control): 89.16
MMP-9; concentration 7.81 µM
  remaining enzyme activity (% of control): 98.12
MMP-9; concentration 31.25 µM
  remaining enzyme activity (% of control): 95.00
MMP-9; concentration 125.00 µM
  remaining enzyme activity (% of control): 90.00
MMP-9; concentration 500.00 µM
  remaining enzyme activity (% of control): 85.00
